Experiments:
[1] = tested on: crabgrass; assay: Test B pre/postemergence crabgrass; type: in vivo, Digitaria sanguinalis
Outline: (§1)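 Test chemicals in a non-phytotoxic solvent mixture with surfactant were sprayed preemergence onto planted seeds and postemergence onto plants 2 to 18 cm tall (1- to 4-leaf stage). After twelve to sixteen days in a greenhouse, injury was visually rated against untreated controls from 0 (no effect) to 10 (complete control).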

[2] = tested on: giant foxtail; assay: Test B pre/postemergence giant foxtail; type: in vivo, Setaria faberii
Outline: as §1

[3] = tested on: purple nutsedge; assay: Test B pre/postemergence purple nutsedge; type: in vivo, Cyperus rotundus
Outline: as §1

[4] = tested on: rape; assay: Test B pre/postemergence rape; type: in vivo, Brassica napus
Outline: as §1

[5] = tested on: velvetleaf; assay: Test B pre/postemergence velvetleaf; type: in vivo, Abutilon theophrasti
Outline: as §1

[6] = tested on: blackgrass; assay: Test B pre/postemergence blackgrass; type: in vivo, Alopecurus myosuroides
Outline: as §1

[7] = tested on: morningglory; assay: Test B pre/postemergence morningglory; type: in vivo, Ipomoea hederacea
Outline: as §1

[8] = tested on: wheat; assay: Test B pre/postemergence wheat; type: in vivo, Triticum aestivum
Outline: as §1

[9] = tested on: bedstraw; assay: Test B pre/postemergence bedstraw; type: in vivo, Galium aparine; conditions: Preemergence
Outline: as §1

[10] = tested on: cocklebur; assay: Test B pre/postemergence cocklebur; type: in vivo, Xanthium strumarium
Outline: as §1

[11] = tested on: sugar beet; assay: Test B pre/postemergence sugar beet; type: in vivo, Beta vulgaris
Outline: as §1

[12] = tested on: soybean; assay: Test B pre/postemergence soybean; type: in vivo, Glycine max
Outline: as §1

[13] = tested on: wild oat; assay: Test B pre/postemergence wild oat; type: in vivo, Avena fatua
Outline: as §1

[14] = tested on: corn; assay: Test B pre/postemergence corn; type: in vivo, Zea mays
Outline: as §1

[15] = tested on: pigweed; assay: Test B pre/postemergence pigweed; type: in vivo, Amaranthus retroflexus
Outline: as §1

[16] = tested on: surinam grass; assay: Test B pre/postemergence surinam grass; type: in vivo, Brachiaria decumbens
Outline: as §1

[17] = Postemergence, Rate 62 g/ha, scale of 0 to 10, 0 is no effect, 10 is complete control
[18] = Postemergence, Rate 125 g/ha, scale 0 to 10, 0 is no effect, 10 is complete control
[19] = Postemergence, Rate 500 g/ha, scale of 0 to 10 where 0 is no effect and 10 is complete control
[20] = Preemergence, Rate 62 g/ha, scale 0 to 10 (0 no effect, 10 complete control)
[21] = Preemergence, Rate 125 g/ha, scale 0 to 10, 0 is no effect, 10 is complete control
[22] = Preemergence, Rate 500 g/ha, scale of 0 to 10 where 0 is no effect and 10 is complete control
[23] = Rate 250 g/ha, Postemergence, scale of 0 to 10 where 0 is no effect and 10 is complete control

CC(C)N(C(=O)n1oc(=O)n(CCC(F)=C(F)F)c1=O)c1ccccc1 [Compound 566]
Crabgrass plant response rating [1, 17]: 2
Crabgrass plant response rating [1, 18]: 8
Plant response rating, Crabgrass [1, 19]: 9
Crabgrass plant response rating [1, 20]: 9
Crabgrass plant response rating [1, 21]: 9
Crabgrass plant response rating (0 to 10 scale) ([1]; Preemergence, Rate 250 g/ha): 9
Crabgrass plant response rating [1, 22]: 10
Plant response rating, Crabgrass [1, 23]: 10
Giant foxtail plant response rating [2, 17]: 0
Giant foxtail plant response rating [2, 18]: 8
Plant response rating, Giant foxtail [2, 19]: 9
Giant foxtail plant response rating [2, 20]: 9
Giant foxtail plant response rating [2, 21]: 10
Giant foxtail plant response rating (0 to 10 scale) ([2]; Preemergence, Rate 250 g/ha): 10
Giant foxtail plant response rating [2, 22]: 10
Plant response rating, Giant foxtail [2, 23]: 8
Nutsedge plant response rating [3, 17]: 0
Nutsedge plant response rating [3, 18]: 0
Plant response rating, Nutsedge [3, 19]: 0
Nutsedge plant response rating [3, 20]: 0
Nutsedge plant response rating [3, 21]: 0
Nutsedge plant response rating (0 to 10 scale) ([3]; Preemergence, Rate 250 g/ha): 0
Nutsedge plant response rating [3, 22]: 0
Rape plant response rating [4, 17]: 0
Rape plant response rating [4, 18]: 0
Plant response rating, Rape [4, 19]: 9
Rape plant response rating [4, 20]: 0
Rape plant response rating [4, 21]: 0
Rape plant response rating (0 to 10 scale) ([4]; Preemergence, Rate 250 g/ha): 7
Rape plant response rating [4, 22]: 10
Plant response rating, Rape [4, 23]: 9
Velvetleaf plant response rating [5, 17]: 3
Plant response rating, Velvetleaf [5, 19]: 5
Velvetleaf plant response rating [5, 20]: 0
Velvetleaf plant response rating [5, 21]: 0
Velvetleaf plant response rating (0 to 10 scale) ([5]; Preemergence, Rate 250 g/ha): 0
Velvetleaf plant response rating [5, 22]: 2
Plant response rating, Velvetleaf [5, 23]: 5
Blackgrass plant response rating [6, 17]: 0
Blackgrass plant response rating [6, 18]: 2
Plant response rating, Blackgrass [6, 19]: 6
Blackgrass plant response rating [6, 20]: 3
Blackgrass plant response rating [6, 21]: 9
Blackgrass plant response rating (0 to 10 scale) ([6]; Preemergence, Rate 250 g/ha): 10
Blackgrass plant response rating [6, 22]: 10
Plant response rating, Blackgrass [6, 23]: 3
Morningglory plant response rating [7, 17]: 5
Morningglory plant response rating [7, 18]: 5
Plant response rating, Morningglory [7, 19]: 10
Morningglory plant response rating [7, 20]: 0
Morningglory plant response rating [7, 21]: 0
Morningglory plant response rating (0 to 10 scale) ([7]; Preemergence, Rate 250 g/ha): 0
Morningglory plant response rating [7, 22]: 0
Plant response rating, Morningglory [7, 23]: 6
Wheat plant response rating [8, 17]: 0
Plant response rating, Wheat [8, 19]: 4
Wheat plant response rating [8, 20]: 0
Wheat plant response rating [8, 21]: 6
Wheat plant response rating (0 to 10 scale) ([8]; Preemergence, Rate 250 g/ha): 6
Wheat plant response rating [8, 22]: 7
Plant response rating, Wheat [8, 23]: 0
Bedstraw plant response rating ([9]; Rate 62 g/ha, scale 0 to 10 (0 no effect, 10 complete control)): 0
Bedstraw plant response rating ([9]; Rate 125 g/ha, scale 0 to 10, 0 is no effect, 10 is complete control): 0
Bedstraw plant response rating (0 to 10 scale) ([9]; Rate 250 g/ha): 0
Bedstraw plant response rating ([9]; Rate 500 g/ha, scale of 0 to 10 where 0 is no effect and 10 is complete control): 0
Cocklebur plant response rating [10, 17]: 2
Cocklebur plant response rating [10, 18]: 2
Plant response rating, Cocklebur [10, 19]: 3
Cocklebur plant response rating [10, 20]: 0
Cocklebur plant response rating [10, 21]: 0
Cocklebur plant response rating (0 to 10 scale) ([10]; Preemergence, Rate 250 g/ha): 0
Cocklebur plant response rating [10, 22]: 0
Plant response rating, Cocklebur [10, 23]: 2
Sugarbeets plant response rating [11, 17]: 0
Plant response rating, Sugarbeets [11, 19]: 5
Sugarbeets plant response rating [11, 20]: 0
Sugarbeets plant response rating [11, 21]: 4
Sugarbeets plant response rating (0 to 10 scale) ([11]; Preemergence, Rate 250 g/ha): 6
Sugarbeets plant response rating [11, 22]: 6
Soybean plant response rating [12, 17]: 4
Plant response rating, Soybean [12, 19]: 6
Soybean plant response rating [12, 20]: 0
Soybean plant response rating [12, 21]: 0
Soybean plant response rating (0 to 10 scale) ([12]; Preemergence, Rate 250 g/ha): 0
Soybean plant response rating [12, 22]: 0
Plant response rating, Soybean [12, 23]: 6
Wild oats plant response rating [13, 17]: 0
Plant response rating, Wild oats [13, 19]: 4
Wild oats plant response rating [13, 20]: 3
Wild oats plant response rating [13, 21]: 9
Wild oats plant response rating (0 to 10 scale) ([13]; Preemergence, Rate 250 g/ha): 8
Wild oats plant response rating [13, 22]: 10
Plant response rating, Wild oats [13, 23]: 0
Corn plant response rating [14, 17]: 0
Corn plant response rating [14, 18]: 0
Plant response rating, Corn [14, 19]: 2
Corn plant response rating [14, 20]: 0
Corn plant response rating [14, 21]: 2
Corn plant response rating (0 to 10 scale) ([14]; Preemergence, Rate 250 g/ha): 2
Corn plant response rating [14, 22]: 9
Plant response rating, Corn [14, 23]: 2
Redroot pigweed plant response rating [15, 17]: 3
Plant response rating, Redroot pigweed [15, 19]: 5
Redroot pigweed plant response rating [15, 20]: 0
Redroot pigweed plant response rating [15, 21]: 9
Redroot pigweed plant response rating (0 to 10 scale) ([15]; Preemergence, Rate 250 g/ha): 9
Redroot pigweed plant response rating [15, 22]: 10
B. signalgrass plant response rating [16, 17]: 2
B. signalgrass plant response rating [16, 18]: 8
Plant response rating, B. signalgrass [16, 19]: 9
B. signalgrass plant response rating [16, 20]: 9
B. signalgrass plant response rating [16, 21]: 9
B. signalgrass plant response rating (0 to 10 scale, 0 is no effect, 10 is complete control) ([16]; Preemergence, Rate 250 g/ha): 10
B. signalgrass plant response rating [16, 22]: 9
Plant response rating, B. signalgrass [16, 23]: 8
